The text below walks through data of US20230167073A1 (Teijin Pharma Limited, priority 2020, published 2023).

The target in one test is T1, Human TRPC6 (Homo sapiens, UniProt Q9Y210).
T1 construct: expressed in transfected cells
T1 sequence (Q9Y210 1-931): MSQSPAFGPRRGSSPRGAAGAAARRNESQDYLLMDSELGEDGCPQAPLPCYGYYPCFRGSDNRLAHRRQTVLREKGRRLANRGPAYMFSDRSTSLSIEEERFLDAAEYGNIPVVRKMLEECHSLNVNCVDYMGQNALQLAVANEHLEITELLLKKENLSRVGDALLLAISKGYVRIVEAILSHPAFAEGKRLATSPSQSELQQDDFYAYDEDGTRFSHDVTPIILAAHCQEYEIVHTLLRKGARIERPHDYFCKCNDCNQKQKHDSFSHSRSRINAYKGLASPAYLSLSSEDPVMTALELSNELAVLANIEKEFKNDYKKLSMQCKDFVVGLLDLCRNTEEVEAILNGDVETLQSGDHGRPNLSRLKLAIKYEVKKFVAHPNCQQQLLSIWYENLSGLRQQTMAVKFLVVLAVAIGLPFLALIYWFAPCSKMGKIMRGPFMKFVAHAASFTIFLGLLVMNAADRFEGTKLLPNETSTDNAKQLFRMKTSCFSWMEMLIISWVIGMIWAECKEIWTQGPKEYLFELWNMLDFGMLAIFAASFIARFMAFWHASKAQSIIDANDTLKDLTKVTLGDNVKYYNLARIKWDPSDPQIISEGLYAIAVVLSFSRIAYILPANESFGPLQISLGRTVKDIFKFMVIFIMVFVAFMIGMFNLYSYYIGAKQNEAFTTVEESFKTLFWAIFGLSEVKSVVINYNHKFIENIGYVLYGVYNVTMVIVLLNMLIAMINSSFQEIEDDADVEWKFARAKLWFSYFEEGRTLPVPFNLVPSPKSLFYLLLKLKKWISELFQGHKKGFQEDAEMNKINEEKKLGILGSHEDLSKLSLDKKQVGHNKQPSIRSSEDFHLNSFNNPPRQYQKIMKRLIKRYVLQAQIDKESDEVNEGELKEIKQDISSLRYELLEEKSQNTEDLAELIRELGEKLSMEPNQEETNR
The test can be described thus: Evaluation of TRPC6 channel inhibitory activity (1), FLIPR Calcium 5 Assay Kit, OAG stimulation (Compound Nos. 1-1293). The test is classed as cell-based.
Details: not given
In outline: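 The FLIPR signal is maximum fluorescence after 30 μM OAG minus minimum before compound, measured in a human TRPC6 stable line loaded with Calcium 5 dye. Compounds were preincubated 20 min. pIC50 came from four-parameter logistic fitting of inhibition rates and is given as symbol ranges.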
For `Cc1nc(Oc2cc(C#N)ccc2-c2ccc(CC3(N)COC3)cn2)cc(N2C3CCC2CC3)n1` [Compound No. 670, 4-[5-[(3-Aminooxetan-3-yl)methyl]pyridin-2-yl]-3-[6-(7-azabicyclo[2.2.1]heptan-7-yl)-2-methylpyrimidin-4-yl]oxybenzonitrile], the IC50 was below 10 nM.

Still in this test, the particulars now being: Human TRPC6 stably-expressing cells, OAG 30 μM, FLIPR Calcium 5 Assay Kit; read-out: Inhibitory activity (pIC50 class) (converted).
With `Cc1nc(Oc2cc(C#N)ccc2-c2ccc(CCN)cc2)cc(N2CCCCC2)n1` [Compound 17, 4-[4-(2-Aminoethyl)phenyl]-3-(2-methyl-6-piperidin-1-ylpyrimidin-4-yl)oxybenzonitrile], the IC50 is below 10 nM.
Take `Cc1sc(N2CCOCC2)nc1C(=O)c1cc(C#N)ccc1-c1ncc(CN)cn1` [compound 1069, 4-[5-(aminomethyl)pyrimidin-2-yl]-3-(5-methyl-2-morpholin-4-yl-1,3-thiazole-4-carbonyl)benzonitrile]: the IC50 was above 1000 nM.
In the case of `Cc1nc(Oc2cc(C#N)ccc2-n2cc(N3CCNCC3=O)cn2)cc(C2CCCC2)n1` [Compound 208, 3-(6-Cyclopentyl-2-methylpyrimidin-4-yl)oxy-4-[4-(2-oxopiperazin-1-yl)pyrazol-1-yl]benzonitrile], the IC50 was above 1000 nM.
`Cn1nc(N2CCCC2)cc1Oc1cc(F)ccc1-c1ccc(CN)cn1` [compound 996, [6-[4-fluoro-2-(2-methyl-5-pyrrolidin-1-ylpyrazol-3-yl)oxyphenyl]pyridin-3-yl]methanamine]: the IC50 was below 10 nM.
On the same count and under the same terms, the same measure for `Cn1nc(C2CC2)cc1Oc1cc(C#N)ccc1-c1ccc(CC2(N)COC2)cn1` [compound 610, 4-[5-[(3-aminooxetan-3-yl)methyl]pyridin-2-yl]-3-(5-cyclopropyl-2-methylpyrazol-3-yl)oxybenzonitrile]: below 10 nM; for `Cn1nc(C2CC2)cc1Oc1cc(C#N)ccc1-c1cnc(CCN)nc1` [compound 347, 4-[2-(2-aminoethyl)pyrimidin-5-yl]-3-(5-cyclopropyl-2-methylpyrazol-3 yl)oxybenzonitrile]: above 1000 nM.
Still for that read-out and setting: the same measure for `N#Cc1ccc(-c2ncc(CCN)cn2)c(Cn2ccnc2-c2ccccc2)c1` [compound 1182, 4-[5-(2-aminoethyl)pyrimidin-2-yl]-3-[(2-phenylimidazol-1-yl)methyl]benzonitrile]: above 1000 nM.
In the case of `C[C@H](N)c1cnc(-c2ccc(C#N)cc2Oc2cc(-c3ccccn3)nn2C)nc1` [compound 809, 4-[5-[(1S)-1-aminoethyl]pyrimidin-2-yl]-3-(2-methyl-5-pyridin-2-ylpyrazol-3-yl)oxybenzonitrile], the IC50 is below 10 nM.
On the same count and under the same terms, then `Cc1nc(Oc2cc(C#N)ccc2-c2cnn(C3CCNCC3)c2)cc(N2CCOCC2)n1` [Compound 239, 3-(2-methyl-6-morpholin-4-ylpyrimidin-4-yl)oxy-4-(1-piperidin-4-ylpyrazol-4-yl)benzonitrile], with above 1000 nM; and `Cc1nc(Oc2cc(C#N)ccc2-c2ncc([C@H](O)CN)cn2)cc(N2CCCCC2)n1` [compound 510, 4-[5-[(1S)-2-amino-1-hydroxyethyl]pyrimidin-2-yl]-3-(2-methyl-6-piperidin-1-ylpyrimidin-4-yl)oxybenzonitrile], with below 10 nM; and `Cc1nc(Nc2cc(C#N)ccc2-c2ccc(C(=O)CN)cc2)cc(N2CCOCC2)n1` [Compound 4, 4-[4-(2-Aminoacetyl)phenyl]-3-[(2-methyl-6-morpholin-4-ylpyrimidin-4-yl)amino]benzonitrile], with above 1000 nM.
Turning to `NCc1cnc(-c2ccc(F)cc2C(=O)c2cnn(CC(F)F)c2)nc1` [compound 1099, [2-[5-(aminomethyl)pyrimidin-2-yl]-5-fluorophenyl]-[1-(2,2-difluoroethyl)pyrazol-4-yl]methanone], the IC50 is above 1000 nM.
On the same count and under the same terms, then `Cn1nc(C2CC2)cc1Oc1cc(C#N)ccc1-c1ccc(C(O)C(C)(C)N)cn1` (stereo not drawn) [compound 335, 4-[5-(2-amino-1-hydroxy-2-methylpropyl)pyridin-2-yl]-3-(5-cyclopropyl-2-methylpyrazol-3-yl)oxybenzonitrile], with below 10 nM; and `CC(C)Cn1cc(Oc2cc(C#N)ccc2-c2ncc(CCN)cn2)c(C(F)(F)F)n1` [compound 955, 4-[5-(2-aminoethyl)pyrimidin-2-yl]-3-[1-(2-methylpropyl)-3-(trifluoromethyl)pyrazol-4-yl]oxybenzonitrile], with below 10 nM; and `Cn1nc(C2CC2)cc1Oc1cc(C#N)ccc1-c1ccc(C(N)CO)cn1` (stereo not drawn) [compound 421, 4-[5-(1-amino-2-hydroxyethyl)pyridin-2-yl]-3-(5-cyclopropyl-2-methylpyrazol-3-yl)oxybenzonitrile], with 10 to 1000 nM.
On the same count and under the same terms, the same measure for `Cn1nc(C2CC2)cc1Oc1cc(C#N)ccc1-c1ncc(N)cn1` [compound 417, 4-(5-aminopyrimidin-2-yl)-3-(5-cyclopropyl-2-methylpyrazol-3-yl)oxybenzonitrile]: above 1000 nM; for `Cn1nc(N2CCOCC2)cc1C(=O)c1cc(C#N)ccc1-c1ccc(CN)cn1` [compound 1029, 4-[5-(aminomethyl)pyridin-2-yl]-3-(2-methyl-5-morpholin-4-ylpyrazole-3-carbonyl)benzonitrile]: below 10 nM; for `N#Cc1ccc(-c2ncc(CN)cn2)c(Cn2cc(C3CCCCC3)nn2)c1` [compound 1190, 4-[5-(aminomethyl)pyrimidin-2-yl]-3-[(4-cyclohexyltriazol-1-yl)methyl]benzonitrile]: 10 to 1000 nM.
Consider `Cc1nc(Oc2cc(C#N)ccc2-c2ccc(CCN)cc2)cc(-c2nccs2)n1` [Compound 40, 4-[4-(2-aminoethyl)phenyl]-3-[2-methyl-6-(1,3-thiazol-2-yl)pyrimidin-4-yl]oxybenzonitrile], for which the IC50 was above 1000 nM.
Consider `Cc1nc(-c2cc(Oc3cc(C#N)ccc3-c3ncc(CN)cn3)n(C)n2)cn1C` [compound 933, 4-[5-(aminomethyl)pyrimidin-2-yl]-3-[5-(1,2-dimethylimidazol-4-yl)-2-methylpyrazol-3-yl]oxybenzonitrile], for which the IC50 was above 1000 nM.
On the same count and under the same terms, then `Cn1nc(-c2ncccn2)cc1Oc1cc(C#N)ccc1-c1ccc(CCN)cn1` [compound 512, 4-[5-(2-aminoethyl)pyridin-2-yl]-3-(2-methyl-5-pyrimidin-2-ylpyrazol-3-yl)oxybenzonitrile], with 10 to 1000 nM; and `Cn1nc(-c2cccc(F)c2)cc1Oc1cc(C#N)ccc1-c1ncc(CCN)cn1` [compound 402, 4-[5-(2-aminoethyl)pyrimidin-2-yl]-3-[5-(3-fluorophenyl)-2-methylpyrazol-3-yl]oxybenzonitrile], with below 10 nM.
Turning to `Cc1nc(Oc2cc(C#N)ccc2-c2ccc3c(c2)C(O)C(N)CC3)cc(-c2ccccc2)n1` (stereo not drawn) [Compound 191, 4-(7-amino-8-hydroxy-5,6,7,8-tetrahydronaphthalen-2-yl)-3-(2-methyl-6-phenylpyrimidin-4-yl)oxybenzonitrile], the IC50 was above 1000 nM.
The same measure, in the same setting: then `CCCN(CCC)c1cc(Oc2cc(C#N)ccc2-c2ncc(CCN)cn2)n(C)n1` [compound 759, 4-[5-(2-aminoethyl)pyrimidin-2-yl]-3-[5-(dipropylamino)-2-methylpyrazol-3-yl]oxybenzonitrile], with below 10 nM.
The same measure, in the same setting: the same measure for `Cn1nc(-c2ccccc2)cc1Oc1cc(C#N)ccc1-n1cc(N2CCNCC2=O)cn1` [Compound 217, 3-(2-methyl-5-phenylpyrazol-3-yl)oxy-4-[4-(2-oxopiperazin-1-yl)pyrazol-1-yl]benzonitrile]: above 1000 nM.
The same measure, in the same setting: then `N#Cc1ccc(-c2ncc(CCN)cn2)c(Sc2nnc(N3CCCCC3)s2)c1` [compound 1270, 4-[5-(2-aminoethyl)pyrimidin-2-yl]-3-[(5-piperidin-1-yl-1,3,4-thiadiazol-2-yl)sulfanyl]benzonitrile], with 10 to 1000 nM; and `CNC(=O)C(N)c1ccc(-c2ccc(C#N)cc2Oc2cc(C3CC3)nn2C)nc1` (stereo not drawn) [compound 491, 2-amino-2-[6-[4-cyano-2-(5-cyclopropyl-2-methylpyrazol-3-yl)oxyphenyl]pyridin-3-yl]-N-methylacetamide], with 10 to 1000 nM.
On to `COCCN(C)c1cc(Oc2cc(C#N)ccc2-c2ncc(CN)cn2)nc(C)n1` [compound 797, 4-[5-(aminomethyl)pyrimidin-2-yl]-3-[6-[2-methoxyethyl(methyl)amino]-2-methylpyrimidin-4-yl]oxybenzonitrile], for which the IC50 is above 1000 nM.
Regarding `CC(C)c1cc(Oc2cc(C#N)ccc2-c2ccc(CCN)cn2)n(C)n1` [Compound 229, 4-[5-(2-aminoethyl)pyridin-2-yl]-3-(2-methyl-5-propan-2-ylpyrazol-3-yl)oxybenzonitrile], the IC50 was below 10 nM.
